Measured values from ChEMBL document CHEMBL1201862, “PubChem BioAssay data set” (2004).
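Dose response: 5 concentrations. Exposure: 48 h. Format: 96-well plates. Endpoint: linear interpolation; highest concentration if not reached. GI50 is the concentration that inhibits growth by half.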 Active and inactive are the calls of the source. Rule as the data show it: active = GI50 up to about 1.1 µM and inactive = higher.

Tests used:
Test in all cases: DTP human tumour cell line panel, 48 h
[1] = tested on: 786-0
[2] = tested on: A498
[3] = tested on: A549
[4] = tested on: ACHN
[5] = tested on: CAKI-1
[6] = tested on: CCRF-CEM
[7] = tested on: COLO 205
[8] = tested on: DU-145
[9] = tested on: EKVX
[10] = tested on: HCC 2998
[11] = tested on: HCT-116
[12] = tested on: HCT-15
[13] = tested on: HL-60
[14] = tested on: HOP-62
[15] = tested on: HOP-92
[16] = tested on: HT-29
[17] = tested on: Hs-578T
[18] = tested on: IGROV-1
[19] = tested on: K562
[20] = tested on: LOX IMVI
[21] = tested on: M14
[22] = tested on: MCF7
[23] = tested on: MDA-MB-231
[24] = tested on: MDA-MB-435
[25] = tested on: MDA-N
[26] = tested on: MOLT-4
[27] = tested on: Malme-3M
[28] = tested on: NCI-H226
[29] = tested on: NCI-H23
[30] = tested on: NCI-H460
[31] = tested on: NCI-H522
[32] = tested on: NCI/ADR-RES
[33] = tested on: OVCAR-3
[34] = tested on: OVCAR-4
[35] = tested on: OVCAR-5
[36] = tested on: OVCAR-8
[37] = tested on: PC-3
[38] = tested on: RPMI-8226
[39] = tested on: RXF 393
[40] = tested on: SF-268
[41] = tested on: SF-295
[42] = tested on: SF-539
[43] = tested on: SK-MEL-28
[44] = tested on: SK-MEL-2
[45] = tested on: SK-MEL-5
[46] = tested on: SK-OV-3
[47] = tested on: SN12C
[48] = tested on: SNB-19
[49] = tested on: SNB-75
[50] = tested on: SR
[51] = tested on: SW-620
[52] = tested on: T47D
[53] = tested on: TK-10
[54] = tested on: U-251
[55] = tested on: UACC-257
[56] = tested on: UO-31

In the case of `COC(=O)c1ccc2c(c1)CC1(C2)Cc2ccccc2C1=O` (stereo unspecified), the GI50 [1] is reported as 40.2 µM (inactive), the GI50 [2] is reported as 37.6 µM (inactive) and the GI50 [3] is reported as 53.1 µM (inactive). For the same compound, the GI50 [4] was 29.7 µM (inactive), the GI50 [5] was 34.7 µM (inactive) and the GI50 [6] was 19.9 µM (inactive). The GI50 [7] was 18 µM (inactive), the GI50 [8] was 36.3 µM (inactive) and the GI50 [9] was 29.5 µM (inactive). The GI50 [10] was 54.5 µM (inactive), the GI50 [11] was 23.8 µM (inactive) and the GI50 [12] was 36.2 µM. The GI50 [13] was 26.5 µM (inactive), the GI50 [14] was 38.5 µM (inactive) and the GI50 [15] was 18.1 µM (inactive). The GI50 [16] was 17.5 µM (inactive), the GI50 [17] was 69.7 µM (inactive) and the GI50 [18] was 33.3 µM (inactive). For the same compound, the GI50 [19] was 30.3 µM (inactive), the GI50 [20] was 22.4 µM (inactive) and the GI50 [21] was 18.7 µM (inactive). The GI50 [22] was 22.9 µM (inactive), the GI50 [23] was 22.7 µM (inactive) and the GI50 [24] was 24.5 µM (inactive). The GI50 [25] was 27.7 µM (inactive), the GI50 [26] was 15.4 µM (inactive) and the GI50 [27] was 20.8 µM (inactive). For the same compound, the GI50 [28] was 15.1 µM (inactive), the GI50 [29] was 29.5 µM (inactive) and the GI50 [30] was > 100 µM (inactive). For the same compound, the GI50 [31] was 25.3 µM (inactive), the GI50 [32] was 27.6 µM (inactive) and the GI50 [33] was 29.1 µM (inactive). The GI50 [34] was 32.3 µM (inactive), the GI50 [35] was 72.3 µM (inactive) and the GI50 [36] was 38.5 µM (inactive). The GI50 [37] was 42.8 µM (inactive), the GI50 [38] was 13.4 µM (inactive) and the GI50 [39] was 33.3 µM (inactive). For the same compound, the GI50 [40] was 35 µM (inactive), the GI50 [41] was 39.4 µM (inactive) and the GI50 [42] was 38.6 µM (inactive). The GI50 [43] was 14.8 µM (inactive), the GI50 [44] was 27.4 µM (inactive) and the GI50 [45] was 17.9 µM (inactive). For the same compound, the GI50 [46] was 68.4 µM (inactive), the GI50 [47] was 25.9 µM (inactive) and the GI50 [48] was 66.1 µM (inactive). For the same compound, the GI50 [49] was 24.3 µM (inactive), the GI50 [50] was 22.2 µM (inactive) and the GI50 [51] was 32.7 µM (inactive). For the same compound, the GI50 [52] was 37.8 µM (inactive), the GI50 [53] was 31 µM (inactive) and the GI50 [54] was 34.2 µM (inactive). For the same compound, the GI50 [55] was 15.1 µM (inactive) and the GI50 [56] was 22.4 µM (inactive).
